Experimental data: patent publication US20030202935A1, “Composition and formulations and their use as nociceptic, anti-axniolytic and anabolic agents” (priority 2000, published 2003)

What was measured:
Intracellular Adenosine = tested on: Intracellular Adenosine; parameters: species or system Fischer 344 rats; conditions: rat, in vivo, po
Procedure: Folinic acid (50 mg/kg) was administered intraperitoneally once daily for fourteen days. […] Hearts were removed from animals and flash frozen in liquid nitrogen within 10 seconds of death. Liver and lungs were removed en bloc and flash frozen within 30 seconds of death. Brain tissue was subsequently dissected.

[1] = cited from earlier work

| SMILES | adenosine levels in the brain (Intracellular Adenosine) | half life [1] |
| --- | --- | --- |
| Nc1nc(=O)c2c([nH]1)NCC(CNc1ccc(C(=O)N[C@@H](CCC(=O)O)C(=O)O)cc1)N2C=O (mixture of isomers) [Folinic Acid (F.A.), folinic acid] | dramatic increase | – |
| Nc1ncnc2c1ncn2[C@@H]1O[C@H](CO)[C@@H](O)[C@H]1O [adenosine] | – | about a second |
